Measured values as given in the supplement of paper PMC10627819.

Columns and labels:
S. pneumoniae D39V [1] = test: fitness (endpoint OD595 vs no drug) (fraction); higher = more growth
How it was run: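 Plates with 384 wells were inoculated at OD595 0.01 using 30 µl of TSB, LB Lennox or CY, or 55 µl for S. pneumoniae. Incubation was at 37 °C, with OD595 measured every 30 min for 14 h. Fitness is the stationary-phase transition optical density over the robust mean of no-drug control wells, after first-reading background subtraction; it is capped at 1.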

B. subtilis 168 = test: Bliss interaction score (quartile over a dose matrix) (fitness difference); higher = more antagonism (negative = synergy)
How it was run: (§1)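 Each plate was normalised to the robust mean of its own no-drug wells, using OD595 at entry into stationary phase, with values capped at 1. This normalised growth is the fitness value. The Bliss score is the difference between observed and product-expected fitness, with single-drug fitness inferred from the combination data and quartiles taken over technical, biological and donor/recipient replicates.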

S. aureus DSM 20231 = test: as above
How it was run: as §1

S. aureus Newman = test: as above
How it was run: as §1

S. pneumoniae D39V [2] = test: as above
How it was run: as §1
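Throughout, for Bliss interaction score (quartile over a dose matrix): first quartile when negative (synergy) and third quartile when positive (antagonism).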

COc1cccc2c1C(=O)c1c(O)c3c(c(O)c1C2=O)C[C@@](O)(C(=O)CO)C[C@@H]3O[C@H]1C[C@H](N)[C@H](O)[C@H](C)O1 [Doxorubicin] + CO[C@H]1/C=C/O[C@@]2(C)Oc3c(C)c(O)c4c(O)c(c(/C=N/N5CCN(C)CC5)c(O)c4c3C2=O)NC(=O)/C(C)=C\C=C\[C@H](C)[C@H](O)[C@@H](C)[C@@H](O)[C@@H](C)[C@H](OC(C)=O)[C@@H]1C [Rifampicin]
fitness, S. pneumoniae D39V [1]
Conditions | first compound 0.25 µg/mL | first compound 0.5 µg/mL | first compound 1 µg/mL
partner 0.025 µg/mL | 0.985 | 0.991 | 0.866
partner 0.05 µg/mL | – | 0.94 | –
partner 0.1 µg/mL | 0.323 | 0.397 | 0.318

S. pneumoniae D39V [1], partner 0.2 µg/mL, one replicate
Conditions | fitness
first compound 0.25 µg/mL | 0
first compound 0.5 µg/mL | 0
first compound 1 µg/mL | 0

Conditions | Bliss interaction score
B. subtilis 168 | 0.0845
S. aureus DSM 20231 | -0.0908
S. aureus Newman | -0.029
S. pneumoniae D39V [2] | -0.058

C[C@@H]1O[C@@H]1P(=O)(O)O [Fosfomycin] + Clc1ccc(COC(Cn2ccnc2)c2ccc(Cl)cc2Cl)c(Cl)c1 [Miconazole]
fitness, S. pneumoniae D39V [1]
Conditions | partner 1.073 µg/mL | partner 1.25 µg/mL | partner 2.145 µg/mL | partner 2.5 µg/mL | partner 4.29 µg/mL | partner 5 µg/mL
first compound 1.25 µg/mL | 0.988 | 0.946 | 0.967 | 0.946 | 0.879 | 0.968
first compound 2.5 µg/mL | 0.926 | 0.905 | 0.879 | 0.933 | 0.789 | 0.929
first compound 5 µg/mL | 0.758 | 0.769 | 0.7 | 0.753 | 0.678 | 0.776

Conditions | Bliss interaction score
B. subtilis 168 | -0.0714
S. aureus DSM 20231 | 0.0796
S. aureus Newman | 0.103
S. pneumoniae D39V [2] | 0.0499

COc1cccc2c1C(=O)c1c(O)c3c(c(O)c1C2=O)C[C@@](O)(C(=O)CO)C[C@@H]3O[C@H]1C[C@H](N)[C@H](O)[C@H](C)O1 [Doxorubicin] + O=C1CN(/N=C/c2ccc([N+](=O)[O-])o2)C(=O)N1 [Nitrofurantoin]
fitness, S. pneumoniae D39V [1]
Conditions | partner 1.285 µg/mL | partner 2 µg/mL | partner 2.57 µg/mL | partner 4 µg/mL | partner 8 µg/mL
first compound 0.25 µg/mL | 0.935 | 0.918 | 0.91 | 0.857 | 0.465
first compound 0.5 µg/mL | 0.925 | 0.946 | 0.94 | 0.795 | 0.436
first compound 1 µg/mL | 0.825 | 0.814 | 0.809 | 0.721 | 0.405

S. pneumoniae D39V [1], partner 5.14 µg/mL, one replicate
Conditions | fitness
first compound 0.25 µg/mL | 0.822
first compound 0.5 µg/mL | 0.858
first compound 1 µg/mL | 0.695

Conditions | Bliss interaction score
B. subtilis 168 | -0.221
S. aureus DSM 20231 | -0.0576
S. aureus Newman | -0.0388
S. pneumoniae D39V [2] | 0.0747

C[C@H]1c2cccc(O)c2C(=O)C2=C(O)[C@]3(O)C(=O)C(C(N)=O)=C(O)[C@@H](N(C)C)[C@@H]3[C@@H](O)[C@@H]21 [Doxycycline] + CN[C@H](CC(C)C)C(=O)N[C@H]1C(=O)N[C@@H](CC(N)=O)C(=O)N[C@H]2C(=O)N[C@H]3C(=O)N[C@H](C(=O)N[C@H](C(=O)O)c4cc(O)cc(O)c4-c4cc3ccc4O)[C@H](O)c3ccc(c(Cl)c3)Oc3cc2cc(c3O[C@@H]2O[C@H](CO)[C@@H](O)[C@H](O)[C@H]2O[C@H]2C[C@](C)(N)[C@H](O)[C@H](C)O2)Oc2ccc(cc2Cl)[C@H]1O [Vancomycin]
fitness, S. pneumoniae D39V [1], one replicate
Conditions | first compound 0.003875 µg/mL | first compound 0.00775 µg/mL | first compound 0.031 µg/mL | first compound 0.062 µg/mL
partner 0.125 µg/mL | 0.882 | 0.989 | – | –
partner 0.25 µg/mL | 0.29 | 0.571 | 0.753 | 0.629
partner 0.5 µg/mL | 0.0216 | 0.0253 | 0.128 | 0.0893

fitness, S. pneumoniae D39V [1]
Conditions | partner 0.03125 µg/mL | partner 0.0625 µg/mL | partner 0.125 µg/mL | partner 0.25 µg/mL | partner 0.5 µg/mL
first compound 0.0155 µg/mL | 0.903 | 0.876 | 0.913 | 0.802 | 0.105
first compound 0.031 µg/mL | 0.838 | 0.79 | 0.767 | – | –
first compound 0.062 µg/mL | 0.84 | 0.783 | – | – | –

Conditions | Bliss interaction score
B. subtilis 168 | 0.0535
S. aureus DSM 20231 | 0.0785
S. aureus Newman | 0.0371
S. pneumoniae D39V [2] | 0.101

C[C@@H]1O[C@@H]1P(=O)(O)O [Fosfomycin] + O=C1CN(/N=C/c2ccc([N+](=O)[O-])o2)C(=O)N1 [Nitrofurantoin]
fitness, S. pneumoniae D39V [1]
Conditions | partner 1.285 µg/mL | partner 2 µg/mL | partner 2.57 µg/mL | partner 4 µg/mL | partner 8 µg/mL
first compound 1.25 µg/mL | 0.96 | 0.91 | 0.966 | 0.871 | –
first compound 2.5 µg/mL | 0.936 | 0.879 | 0.964 | 0.887 | –
first compound 5 µg/mL | 0.851 | 0.778 | 0.858 | 0.77 | 0.627

S. pneumoniae D39V [1], partner 5.14 µg/mL, one replicate
Conditions | fitness
first compound 1.25 µg/mL | 0.923
first compound 2.5 µg/mL | 0.898
first compound 5 µg/mL | 0.866

Conditions | Bliss interaction score
B. subtilis 168 | -0.0694
S. aureus DSM 20231 | -0.0181
S. aureus Newman | 0.0702
S. pneumoniae D39V [2] | 0.122

C[C@@H]1O[C@@H]1P(=O)(O)O [Fosfomycin] + C[C@@H](O)[C@H]1C(=O)N2C(C(=O)O)=C(SCCNC=N)C[C@H]12 [Imipenem]
fitness, S. pneumoniae D39V [1]
Conditions | partner 0.005 µg/mL | partner 0.0065 µg/mL | partner 0.01 µg/mL | partner 0.013 µg/mL | partner 0.02 µg/mL | partner 0.026 µg/mL
first compound 1.25 µg/mL | 0.965 | 0.922 | 0.944 | 0.925 | 0.92 | 0.901
first compound 2.5 µg/mL | 0.911 | 0.87 | 0.887 | 0.881 | 0.911 | 0.814
first compound 5 µg/mL | 0.797 | 0.608 | 0.786 | 0.726 | 0.747 | 0.74

Conditions | Bliss interaction score
B. subtilis 168 | 0.0674
S. aureus DSM 20231 | -0.0911
S. aureus Newman | 0.0199
S. pneumoniae D39V [2] | 0.0339

COc1ccc(C[C@H](N)C(=O)N[C@H]2[C@@H](O)[C@H](n3cnc4c(N(C)C)ncnc43)O[C@@H]2CO)cc1 [Puromycin] + CO[C@H]1/C=C/O[C@@]2(C)Oc3c(C)c(O)c4c(O)c(c(/C=N/N5CCN(C)CC5)c(O)c4c3C2=O)NC(=O)/C(C)=C\C=C\[C@H](C)[C@H](O)[C@@H](C)[C@@H](O)[C@@H](C)[C@H](OC(C)=O)[C@@H]1C [Rifampicin]
S. pneumoniae D39V [1], partner 0.025 µg/mL, one replicate
Conditions | fitness
first compound 1 µg/mL | 0.914
first compound 2 µg/mL | 0.856
first compound 4 µg/mL | 0.691

fitness, S. pneumoniae D39V [1]
Conditions | first compound 1 µg/mL | first compound 2 µg/mL | first compound 4 µg/mL
partner 0.05 µg/mL | 0.747 | 0.753 | –
partner 0.2 µg/mL | 0.135 | 0.0783 | 0.0597

Conditions | Bliss interaction score
B. subtilis 168 | 0.0301
S. aureus DSM 20231 | 0.0391
S. aureus Newman | 0.0233
S. pneumoniae D39V [2] | -0.0708

COc1cccc2c1C(=O)c1c(O)c3c(c(O)c1C2=O)C[C@@](O)(C(=O)CO)C[C@@H]3O[C@H]1C[C@H](N)[C@H](O)[C@H](C)O1 [Doxorubicin] + Clc1ccc(COC(Cn2ccnc2)c2ccc(Cl)cc2Cl)c(Cl)c1 [Miconazole]
fitness, S. pneumoniae D39V [1]
Conditions | partner 1.073 µg/mL | partner 1.25 µg/mL | partner 2.145 µg/mL | partner 2.5 µg/mL | partner 4.29 µg/mL | partner 5 µg/mL
first compound 0.25 µg/mL | 0.953 | 0.921 | 0.921 | 0.949 | 0.646 | 0.947
first compound 0.5 µg/mL | 0.967 | 0.967 | 0.978 | 0.966 | 0.848 | 0.983
first compound 1 µg/mL | 0.961 | 0.845 | 0.914 | 0.901 | 0.791 | 0.921

Conditions | Bliss interaction score
B. subtilis 168 | 0.0755
S. aureus DSM 20231 | -0.0766
S. aureus Newman | -0.074
S. pneumoniae D39V [2] | 0.0804

CO/N=C(\C(=O)N[C@@H]1C(=O)N2C(C(=O)O)=C(COC(C)=O)CS[C@H]12)c1csc(N)n1 [Cefotaxime] + O=C1CN(/N=C/c2ccc([N+](=O)[O-])o2)C(=O)N1 [Nitrofurantoin]
fitness, S. pneumoniae D39V [1]
Conditions | partner 1.285 µg/mL | partner 2 µg/mL | partner 2.57 µg/mL | partner 4 µg/mL | partner 8 µg/mL
first compound 0.0018 µg/mL | 0.974 | 0.94 | 0.959 | 0.944 | 0.873
first compound 0.0035 µg/mL | 0.963 | 0.92 | 0.965 | 0.916 | 0.822
first compound 0.007 µg/mL | 0.923 | 0.844 | 0.923 | 0.821 | 0.733

S. pneumoniae D39V [1], partner 5.14 µg/mL, one replicate
Conditions | fitness
first compound 0.0018 µg/mL | 0.981
first compound 0.0035 µg/mL | 0.945
first compound 0.007 µg/mL | 0.894

Conditions | Bliss interaction score
B. subtilis 168 | -0.157
S. aureus DSM 20231 | 0.0224
S. aureus Newman | 0.0592
S. pneumoniae D39V [2] | 0.142

CO/N=C(\C(=O)N[C@@H]1C(=O)N2C(C(=O)O)=C(COC(C)=O)CS[C@H]12)c1csc(N)n1 [Cefotaxime] + CO[C@H]1/C=C/O[C@@]2(C)Oc3c(C)c(O)c4c(O)c(c(/C=N/N5CCN(C)CC5)c(O)c4c3C2=O)NC(=O)/C(C)=C\C=C\[C@H](C)[C@H](O)[C@@H](C)[C@@H](O)[C@@H](C)[C@H](OC(C)=O)[C@@H]1C [Rifampicin]
fitness, S. pneumoniae D39V [1]
Conditions | first compound 0.0018 µg/mL | first compound 0.0035 µg/mL | first compound 0.007 µg/mL
partner 0.025 µg/mL | 0.96 | 0.964 | 0.798
partner 0.1 µg/mL | – | – | 0.159

S. pneumoniae D39V [1], partner 0.2 µg/mL, one replicate
Conditions | fitness
first compound 0.0018 µg/mL | 0
first compound 0.0035 µg/mL | 0
first compound 0.007 µg/mL | 0

Conditions | Bliss interaction score
B. subtilis 168 | 0.0961
S. aureus DSM 20231 | 0.0866
S. aureus Newman | 0.0597
S. pneumoniae D39V [2] | -0.0838
